The target in assay [1] is T1, butyrylcholinesterase (BChE) from equine serum (Equus caballus, UniProt P81908).
T1 construct: butyrylcholinesterase (BChE) from equine serum; purchased Merck Life Science S.r.l; (Milan, Italy); host or cells: equine serum
Description: biochemical. Format: biochemical. Particulars: for BChE Inhibition (%): fractions/compounds at the concentrations in which they are present in EO, average of three assays. How it is done: (§1) The protocol used in this study was that of Rhee et al., with slight modifications. The following buffers were used: buffer A (50 mM Tris-HCl pH 8), buffer B (50 mM Tris-HCl pH 8, with the addition of 0.1% of bovine albumin and 0.1% of TWEEN20), and buffer C (50 mM Tris-HCl pH 8, with the addition of 0.1 M of NaCl and 0.02 M of MgCl2 6H2O). The enzyme solution of 0.22 U/mL was prepared in buffer B. The acetylthiocholine iodide (ATCI) solution of 1.5 mM was prepared in Millipore water, while the butyrylthiocholine iodide (BTCI) solution was prepared in buffer A. Ellman’s reagent solution at 3 mM was prepared in buffer C.
(§2) The reaction mixture was incubated at 30 °C for 6 min. The absorbance values were measured at 405 nm after incubation. […] The control and sample blank solutions were prepared by replacing 150 µL of the enzyme solution with 150 µL of buffer A.
(§3) The percentage of the AChE or BChE inhibition was measured according to the equation below:% Inhibition = ΔA (Control) − ΔA (Sample)/ΔA (Control) × 100 ΔA (Control) = A412 (Control) − A412 (Control Blank) ΔA(Sample) = A412 (Sample) − A412 (Sample Blank)
(§4) The concentration–response curve was determined for each inhibitor by plotting the inhibitory activity against AChE or BChE as a function of the inhibitor concentration in the reaction mixture.
(§5) The Microsoft Excel programme was used for the Anova test. For the IC50 calculation, an online programme from AAT Bioquest was used (https://www.aatbio.com/tools/ic50-calculator, accessed on 10 May 2023).

The subject of another assay is AChE. The settings on record: cited from earlier work.
The target of assay [2] is T2, acetylcholinesterase (AChE) from Electrophorus electricus (Electrophorus electricus, UniProt O42275).
T2 construct: purchased Merck Life Science S.r.l; (Milan, Italy)
The assay is described as follows: biochemical. The class given is biochemical. The settings on record: for AChE Inhibition (%): fractions/compounds at the concentrations in which they are present in EO, average of three assays; for IC50 AChE: ± standard deviation, n = 3. As for the experimental part:
as §1, §2, §3, §4, §5

The test system of a further assay is BChE. More on the design: method as in doi:10.1016/j.jff.2020.103892. Particulars: cited from earlier work.

SMILES strings stand for the structures.

The text below walks through data of PMC10575282, “Elettaria cardamomum (L.) Maton Essential Oil: An Interesting Source of Bioactive Specialized Metabolites as Inhibitors of Acetylcholinesterase and Butyrylcholinesterase” (Plants, 2023).

A word on the IC50: it is the concentration that gives 50% inhibition. Low values mean greater potency, high ones weaker potency.

T1 sequence (P81908 whole entry): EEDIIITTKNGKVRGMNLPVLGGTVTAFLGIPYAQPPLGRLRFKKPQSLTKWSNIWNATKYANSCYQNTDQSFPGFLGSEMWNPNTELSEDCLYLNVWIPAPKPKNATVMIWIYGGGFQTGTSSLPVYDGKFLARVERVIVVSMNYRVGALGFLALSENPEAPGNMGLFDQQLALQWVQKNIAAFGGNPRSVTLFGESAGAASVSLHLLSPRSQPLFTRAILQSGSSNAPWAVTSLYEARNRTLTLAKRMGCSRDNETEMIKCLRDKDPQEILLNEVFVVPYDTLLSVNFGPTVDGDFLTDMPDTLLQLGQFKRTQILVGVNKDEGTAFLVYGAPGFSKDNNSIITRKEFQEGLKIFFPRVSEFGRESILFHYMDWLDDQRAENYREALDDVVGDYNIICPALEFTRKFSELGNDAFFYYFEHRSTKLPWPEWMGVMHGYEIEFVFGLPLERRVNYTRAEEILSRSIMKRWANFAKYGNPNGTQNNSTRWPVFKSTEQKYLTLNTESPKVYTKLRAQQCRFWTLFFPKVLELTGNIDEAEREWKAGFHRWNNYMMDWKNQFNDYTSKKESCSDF
T2 sequence (O42275 24-633): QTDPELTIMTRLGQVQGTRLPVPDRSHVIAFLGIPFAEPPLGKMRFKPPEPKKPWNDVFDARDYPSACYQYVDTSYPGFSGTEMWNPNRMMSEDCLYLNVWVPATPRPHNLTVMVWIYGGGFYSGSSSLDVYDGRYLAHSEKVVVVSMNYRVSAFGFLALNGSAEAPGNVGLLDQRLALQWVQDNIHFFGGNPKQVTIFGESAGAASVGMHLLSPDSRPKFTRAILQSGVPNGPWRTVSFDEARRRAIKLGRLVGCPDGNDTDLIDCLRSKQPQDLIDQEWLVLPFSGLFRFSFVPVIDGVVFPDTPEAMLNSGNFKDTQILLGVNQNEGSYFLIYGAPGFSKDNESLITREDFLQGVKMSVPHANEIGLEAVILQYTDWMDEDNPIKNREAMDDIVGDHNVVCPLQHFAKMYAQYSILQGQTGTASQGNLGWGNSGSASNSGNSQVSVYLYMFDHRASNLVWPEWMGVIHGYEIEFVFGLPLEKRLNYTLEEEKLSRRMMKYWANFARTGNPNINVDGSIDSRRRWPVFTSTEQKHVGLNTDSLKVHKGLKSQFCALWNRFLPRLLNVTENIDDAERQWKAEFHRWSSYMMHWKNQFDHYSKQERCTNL

As for `C=CC(C)(O)CCC=C(C)C` (stereo not shown) [Linalool, linalool], the “BChE Inhibition (%)” value is 5.0% in assay [1] and “active” in assay [1] (listed as linalool).

As to `CC12CCC(CC1)C(C)(C)O2` [1,8-cineole], the AChE inhibition entry in the assay on AChE (mechanism still unclear) was “known to actively inhibit AChE”. This molecule gave a half-maximal inhibitory concentration (IC50) in assay [2] of 91.4 µM. Also, the “AChE Inhibition (%)” value in assay [2] worked out at 55.4%. Besides, the “IC50 BChE” value in assay [1] (± standard deviation, n = 3) was “inactive inhibitor of BChE”; in assay [1] (± standard deviation, n = 3, listed as 1,8-Cineole) it was “not active”.

Regarding `CC(=O)OC(C)(C)C1CC=C(C)CC1` (stereo not drawn) [α-terpinyl acetate], in the assay with AChE, the “Type of inhibition of AChE” value is “competitive inhibition”. Further, the “Type of inhibition of BChE” value in the assay with BChE is “mixed inhibition”. In addition, in assay [2], the “AChE Inhibition (%)” value worked out at 17.0% and the “IC50 AChE” value was 50% inhibition was never achieved. Besides, the “IC50 AChE” value in assay [2] (listed as α-Terpinyl acetate) is on record as “Activity lower than 50%”. Also, the “BChE Inhibition (%)” value in assay [1] is reported as 39.0%. In assay [1] (± standard deviation, n = 3), this molecule had a half-maximal inhibitory concentration (IC50) of 112 µM.

For `C=CC(C)(CCC=C(C)C)OC(C)=O` (stereo not shown) [Linalyl acetate, linalyl acetate], the “BChE Inhibition (%)” value in assay [1] is 10.3%; in assay [1] (listed as linalyl acetate), “active”.
